We go through one compound from patent US20170260169A1, “INHIBITORS FOR STEROID RESPONSE ELEMENTS AND RNA POLYMERASE II AND RELATED METHODS” (priority 2007, published 2017).

One data set relates to RPB1. As to the kind of experiment: RPB1 protein ELISA in LNCaP cells. The following applies: polyamide 10 μM 72 hr; doxorubicin 1 μM 24 hr. It is filed as cell-based. The method, then:
[…] Cells treated with DMSO vehicle and 1 μM doxorubicin for 24 h were used as control. Cellular RBP1 levels were determined by a RPB1 specific ELISA kit (Cusabio Life Sciences) according to manufacturer's instructions. Total cellular p53 protein level was determined with a pan-p53 ELISA kit (Roche) according to manufacturer's instructions. Assays were performed in biological triplicates.

Another data set concerns GILZ enhancer GRE1. As to the kind of experiment: Quantitative DNase I footprint titration on pKAM5 fragment, GRE1. Type of data set: binding. The method, then:
(§1) Detailed experimental protocols are reported elsewhere (44). The GILZ enhancer contains two GREs separated by 22 base pairs (46). GRE 1 is 5'-[NT]=3' (SEQ ID NO:5) and GRE 2 is […] ID NO:7). The DNA binding of polyamides 1 and 2 on these sequences was measured by quantitative DNase I footprint. […] […]).

Data set [1] deals with DNA damage markers (γH2A.X, ATM, DNA-PKcs, p53, Chk2). Nature of the data set: Immunoblot of DNA damage markers, p53 and PARP in LNCaP cells. It is filed as cell-based. The method, then: Samples for immunoblot analysis were prepared by plating LNCaP or DU145 cells at 1 million cells per 10 cm plate. Cells were allowed to adhere for 24-36 hr prior to incubation with compound. After the appropriate incubation time cells were washed once with ice cold PBS and harvested in ice cold 125 μL lysis buffer (50 mM Tris-HCl pH 7.4, 150 mM NaCl, 1 mM EDTA, 1% Triton X100) containing protease inhibitor cocktail (Roche), 1 mM PMSF (Sigma), and phosphatase inhibitors (Sigma). Samples were allowed incubate on ice for 10 min with vortexing once every 3 min. Cellular debris was pelleted by spinning at 14,000 rpm for 15 min to collect the supernatant. Samples were then quantified for protein content with the Bradford assay (Bio-rad) and boiled with 4× sample buffer (Li-Cor) for 5 min. Protein electrophoresis was performed in 4-20% precast Tris glycine SDS gels (Bio-rad) and transferred to PVDF membranes. Membrane blocking was done with Odyssey Blocking Buffer (Li-Cor). The following antibodies used to probe changes in protein levels or phosphorylation states: RBP1 (Santa Cruz Biotechnology, N20), p53 (Santa Cruz Biotechnology, DO1), phospho-Chk2-Thr68 (Cell Signaling Technology), Phospho-p53-Ser15 (Cell Signaling Technology), phosphor-H2A.X-Ser139 (Cell Signaling Technology), phosphor-ATM-Ser1981 (Abcam), phosphor-DNA-PKcs-Ser2056 (Abcam), and […] (Abcam). […]
(In western blotting, separated proteins are transferred to a membrane and probed.)

The test system of another data set is ARE of the PSA promoter. Nature of the data set: Quantitative DNase I footprint titration on pAR-PSA fragment. Type of data set: binding. The text has this: Plasmid pAR-PSA was constructed by inserting a 70-bp sequence from the PSA promoter containing the ARE into pUC19 plasmid. […] Detailed experimental protocols are reported elsewhere (44). The proximal PSA promoter contains the ARE [NT] ID NO:15) (FIG. 8A). […] However, 1 is observed to bind the sequence [NT]≈12 bp 5' to the ARE, which is an expected binding site for this molecule.

Data set [2] is described as follows: Serum circulation after subcutaneous injection in C57BL/6 mice. It is filed as in vivo. The following applies: 120 nmol, 5% DMSO/PBS. The method, then:
To investigate if polyamide 77 could be detected in peripheral blood after SC injections, 120 nmol of 77 (in 5% DMSO/PBS) was injected into the right flank of four C57BL/6 mice. Blood was collected from anesthetized mice via retroorbital collection at 5 minutes, 4 h, and 12 h after injection, then processed by methods previously described and analyzed by HPLC (35). For measurement of serum PSA (KLK3) and uric acid, blood was collected from anesthetized mice via retroorbital collection at experimental endpoint and serum was separated from blood by centrifugation. Serum PSA (KLK3) was measured by ELISA (R&D systems) according to manufacturer's instructions. Uric acid was measured as described (36).
We synthesized four structurally related polyamides (FIG. 28) that have an identical Py-Im sequence ImPyPyPy-γ-ImPyPyPy-NHMe-IPA.

A further data set concerns GILZ enhancer GRE2. As to the kind of experiment: Quantitative DNase I footprint titration on pKAM5 fragment, GRE2. It is filed as binding. Here is the method: as §1
A further data set concerns RPB1 mRNA. As to the kind of experiment: Quantitative RT-PCR of RPB1 transcript in LNCaP cells. It is filed as cell-based. The settings on record: 10 μM. Here is the method: RNA was extracted using RNEasy columns (Qiagen) according to manufacturer's protocols. cDNA was generated from RNA by reverse transcriptase (Transcriptor First Strand cDNA kit, Roche). Quantitative real-time RT-PCR was performed using SYBR Green PCR Master Mix (Applied Biosystems) on an ABI 7300 instrument. mRNA was measured relative to B glucuronidase as an endogenous control.

The test system of another data set is RNAP2 genomic occupancy. As to the kind of experiment: ChIP-seq of RNA polymerase II occupancy in LNCaP cells. Type of data set: cell-based, human.
For data set [3] the following is noted: cited from earlier work.
The subject of data set [4] is AR occupancy at the PSA promoter and enhancer. Nature of the data set: Chromatin immunoprecipitation with anti-AR, PSA promoter and enhancer. Type of data set: cell-based. Here is the method:
LNCaP cells were plated in 15-cm diameter plates at a density of 2×10^6 cells per plate. Media, polyamide treatment, time course, and DHT stimulation were the same as described above. After the 16-h DHT treatment, cells were treated with 1% formaldehyde for 10 min. Chromatin was isolated and sheared. Antibodies to AR (AR-20, Santa Cruz Biotechnology, Santa Cruz, Calif.) were used to immunoprecipitate AR-bound DNA fragments. Crosslinks were reversed, and PCRs using primers targeted to the regions of interest were used to assess enrichment of bound fragments as compared with mock-precipitated (no antibody) controls. PCRs were monitored with SYBR Green PCR Master Mix (Applied Biosystems) on an ABI 7300 instrument. Primer sequences and a more detailed experimental protocol are available upon request.

Data set [5] relates to transcripts in DHT-stimulated LNCaP cells. The following applies: previous studies (12); cited from earlier work.

With `CN(CCCNC(=O)c1cccc(C(=O)O)c1)CCCNC(=O)c1cc(NC(=O)c2cc(NC(=O)c3cc(NC(=O)c4nc(NC(=O)[C@H](N)CCNC(=O)c5cc(NC(=O)c6cc(NC(=O)c7cc(NC(=O)c8nccn8C)cn7C)cn6C)cn5C)cn4C)cn3C)cn2C)cn1C` [Polyamide 1, ImPyPyPy-2-(R)H^2Nγ-ImPyPyPy-NHMe-IPA], the RPB1 protein entry in the data set on RPB1 is “decreases”. Also, the Ka is recorded as 1.9±0.8×10^10 in the data set on GILZ enhancer GRE1; 8.3±1.7×10^9 M^−1 with ARE of the PSA promoter (ARE consensus half-site 5′-AGAACA-3′); 8.3±1.7×10^9 in the data set with ARE of the PSA promoter (ARE half site 5′-AGAACA-3′, FIG. 8 legend); 8.8±1.8×10^9 in the data set on GILZ enhancer GRE2. Further, the “cellular markers of DNA damage (phosphorylation)” value in data set [1] is on record as “did not induce cellular markers of DNA damage”. The “p53 accumulation and PARP cleavage” value in data set [1] was “modest accumulation of p53 and PARP cleavage were observed”. Moreover, in the data set with ARE of the PSA promoter (5′-AGTGCT-3′, single base pair mismatch site), the “binding at the other half-site of the ARE” value is reported as “Minimal binding”. In addition, the Kd result on ARE of the PSA promoter (half-site of the ARE of the PSA promoter) was “subnanomolar”. The “circulation after SC injection” value in [2] is listed as “detectable circulation”. Besides, the “expression of RPB1 mRNA” value with RPB1 mRNA was “modestly increased”. The “RNAP2 occupancy at enhancer loci” value in the data set with RNAP2 genomic occupancy (DHT + 77) is on record as “did not significantly change”. Further, in the data set on RNAP2 genomic occupancy (DHT + 77, 48 h), the “RNAP2 occupancy across genic regions” value is “global decrease of RNAP2 occupancy across genic regions”. In addition, the “animal toxicity after single subcutaneous administration” value in data set [3] (female C57BL/6J mice, 77 at 2.5 and 5 mg/kg, 80 at 2.3 and […]) was “did not adversely affect the animals”. Besides, the weight loss result in data set [3] (female mice, 10 mg/kg SC) is listed as “greater than 15%”. Moreover, in data set [3] (mouse, in vivo), the doses without toxicity entry is listed as “less than 10 mg/kg”. For the same compound, the “occupancy of AR at the PSA promoter and enhancer” value in data set [4] (1 μM as printed) is on record as “decreased occupancy”. For the same compound, the “AR occupancy at the PSA promoter and enhancer” value in data set [4] (10 μM, FIG. 9 legend) is “decreased”. The “share of DHT-induced transcripts affected” value in data set [5] was “approximately 30%”.
